These results are taken from PMC12276006, “Structural basis for sensitivity and acquired resistance of fungal cap guanine-N7 methyltransferases to the antifungal antibiotic sinefungin” (Nucleic Acids Research, 2025).

Assay [1] has as its target T1, KlAbd1 (K. lactis cap methyltransferase Abd1, wild-type) (Kluyveromyces lactis, UniProt Q6CKI0).
T1 construct: aa 1–426); His10-Smt3 (N, cleaved yes); made in house; host or cells: Escherichia coli BL21 (DE3) CodonPlus RIL
In words: Inhibition of GpppA methylation by KlAbd1 (LC-MS/MS assay). The class given is biochemical. The following applies: for IC50: wild-type KlAbd1 250 nM, 100 μM SAM, 250 μM GpppA, 30°C, 10 min. Here is the method: (§1) Reactions (50 μl) were performed in triplicate by incubating 250 nM cap methyltransferases with 100 μM SAM and 250 μM GpppA or 2 mM GTP at 30°C in a buffer consisting of 200 mM NaCl, 50 mM Tris–HCl (pH 8.2), and 5 mM βME. Samples (10 μl aliquots) were withdrawn at specified time points (KlAbd1s: 0, 2, 5, 10, and 15 min, Fig. 1A; ScAbd1s: 0, 5, 10, 15, and 20 min, Fig. 4A) and quenched with 10 μl of 100 mM H2SO4 and 50 μM L-tryptophan, and then stored at −80°C pending liquid chromatography-tandem mass spectrometry (LC–MS/MS) analyses.
(§2) The quenched samples were thawed and centrifuged at 4000 × g at 4°C for 30 min to pellet denatured protein and the supernatants were transferred to a 96-well plate for analysis. Methylation was measured via HPLC with detection by MS conducted on an Agilent 1200 HPLC system coupled with a 6490 QQQ (Agilent Technologies). Assay samples were separated on an InfinityLab Poroshell 120 HILIC-Z column (2.1 mm × 100 mm, 2.7 μm particle size; Agilent Technologies) equilibrated in NH4Ac buffer [A: 10% 10 mM NH4Ac, pH 9.0, and 500 μM methylene diphosphonic acid/90% acetonitrile (ACN); B: 90% 10 mM NH4Ac, pH 9.0, and 500 μM methylene diphosphonic acid/10% ACN] with a flow rate 400 μl/min. The eluents of the column were directed to an electrospray ion source, connected to the QQQ. Samples were analyzed by the QQQ using multiple reaction monitoring (MRM) in negative mode, which measures peak intensities of the product ions of m^7GpppA (785: 408, 620 m/z) or m^7GTP (536.0: 159.0, 371.0 m/z) and the internal standard, L-tryptophan (203: 116, 141.9 m/z). The resultant peak intensities were then integrated. L-Tryptophan was used as an internal standard to perform cross-sample analysis. The m^7GpppA or m^7GTP product ion integrated intensities were normalized to the integrated ion intensity of L-tryptophan, yielding the ISTD. […] ISTDs obtained from reaction samples quenched at specified time points were then used to interpolate either m^7GpppA or m^7GTP concentrations using the calibration curves and used for quantification. […]

Another assay has as its target T2, ScAbd1WT (Saccharomyces cerevisiae, UniProt P32783).
T2 construct: aa 1–436); made in house; host or cells: Escherichia coli BL21 (DE3) CodonPlus RIL
In words: Inhibition of GpppA methylation by wild-type ScAbd1 (LC-MS/MS assay). The assay is classed as biochemical. The following applies: for IC50: ScAbd1WT 250 nM, 100 μM SAM, 250 μM GpppA, 30°C, 20 min. The protocol: as §1, §2

In another assay the target is T3, ScAbd1-L59P-Y416C (Saccharomyces cerevisiae, UniProt P32783, L59P/Y416C).
T3 construct: aa 1–436); made in house; host or cells: Escherichia coli BL21 (DE3) CodonPlus RIL
Description: Inhibition of GpppA methylation by ScAbd1-L59P-Y416C. The conditions noted are these: ScAbd1-L59P-Y416C 250 nM, 100 μM SAM, 250 μM GpppA, 30°C, 20 min. The class given is biochemical. Here is the method: as §1
(§3) The quenched samples were thawed and centrifuged at 4000 × g at 4°C for 30 min to pellet denatured protein and the supernatants were transferred to a 96-well plate for analysis. Methylation was measured via HPLC with detection by MS conducted on an Agilent 1200 HPLC system coupled with a 6490 QQQ (Agilent Technologies). […] Samples were analyzed by the QQQ using multiple reaction monitoring (MRM) in negative mode, which measures peak intensities of the product ions of m^7GpppA (785: 408, 620 m/z) or m^7GTP (536.0: 159.0, 371.0 m/z) and the internal standard, L-tryptophan (203: 116, 141.9 m/z). […] ISTDs obtained from reaction samples quenched at specified time points were then used to interpolate either m^7GpppA or m^7GTP concentrations using the calibration curves and used for quantification. […]

The target in assay [2] is T4, ScAbd1-E124K-K163R-K311R-F387Y-Y416F (Saccharomyces cerevisiae, UniProt P32783, E124K/F387Y/K163R/K311R/Y416F).
T4 construct: aa 1–436); made in house; host or cells: Escherichia coli BL21 (DE3) CodonPlus RIL
Description: Inhibition of GpppA methylation by ScAbd1-E124K-K163R-K311R-F387Y-Y416F. The class given is biochemical. The following applies: ScAbd1-E124K-K163R-K311R-F387Y-Y416F 250 nM, 100 μM SAM, 250 μM GpppA, 30°C, 20 min. Here is the method:
as §1, §3

A further assay has as its target T5, ScAbd1-Y416N-R422H (Saccharomyces cerevisiae, UniProt P32783, R422H/Y416N).
T5 construct: aa 1–436); made in house; host or cells: Escherichia coli BL21 (DE3) CodonPlus RIL
In words: Inhibition of GpppA methylation by ScAbd1-Y416N-R422H. The assay is classed as biochemical. The following applies: ScAbd1-Y416N-R422H 250 nM, 100 μM SAM, 250 μM GpppA, 30°C, 20 min; read-out: SAH IC50. The protocol:
as §1, §3

The next assay has as its target T6, ScAbd1-Y416A (Saccharomyces cerevisiae, UniProt P32783, Y416A).
T6 construct: aa 1–436); made in house; host or cells: Escherichia coli BL21 (DE3) CodonPlus RIL
Description: Inhibition of GpppA methylation by ScAbd1-Y416A. The assay is classed as biochemical. The following applies: ScAbd1-Y416A 250 nM, 100 μM SAM, 250 μM GpppA, 30°C, 20 min. The protocol: as §1, §3

The next assay relates to Ecm1. The following applies: methylation of GTP by Ecm1 in the presence of 5 μM SAM; cited from earlier work.
The test system of assay [3] is recombinant S. cerevisiae Abd1. The conditions noted are these: cited from earlier work.
In assay [4] the test system is ScAbd1 variants L59P-Y416C, Y416N-R422H, E124K-K163R-K311R-F387Y-Y416F and Y416A. Description: Inhibition of GpppA methylation, the four SFG-resistant ScAbd1 variants stated together. The conditions noted are these: versus wild-type ScAbd1. The assay is classed as biochemical, Saccharomyces cerevisiae. Here is the method:
as §1, §3

For assay [5], the system named is S. cerevisiae abd1Δ pABD1* pSAM3 strains. Description: Spot test for growth of abd1Δ pSAM3 strains bearing ABD1 alleles on SFG-supplemented agar. The class given is cell-based, Saccharomyces cerevisiae. The conditions noted are these: 30°C. The protocol: A library of PCR-mutated ABD1 alleles (ABD1*) in a CEN TRP1 plasmid under the control of the ABD1 promoter was constructed as described. The pABD1* library DNA was transfected into S. cerevisiae strain abd1Δ pABD1 (CEN URA3 ABD1) pSAM3 (2µ HIS3 SAM3). Trp^+ His^+ transformants were selected and then plated to agar medium containing 5-fluoroorotic acid (FOA) to counter-select against the CEN URA3 ABD1 plasmid. FOA survivors were plated to Trp- His- agar plates (25 ml) to which 300 µl of a 2.5 or 5 µM solution of SFG had been applied. Colonies that grew well on SFG-containing plates were candidates for harboring SFG-resistant ABD1* alleles. To ascertain whether SFG-resistance was linked to ABD1, the plasmids were recovered from individual SFG-resistant strains and amplified clonally by transformation in E. coli. The pABD1* plasmid DNAs isolated from E. coli were transfected into S. cerevisiae abd1Δ pABD1 (CEN URA3 ABD1) pSAM3 (2µ HIS3 SAM3) strain. Trp^+ His^+ transformants were selected and plated to FOA for counterselection against the CEN URA3 ABD1 plasmid. The resulting abd1Δ pABD1* (CEN TRP1 ABD1*) pSAM3 (2µ HIS3 SAM3) strains were tested in parallel with a control abd1Δ pABD1 (CEN TRP1 ABD1) pSAM3 (2µ HIS3 SAM3) strain for growth on Trp- His- agar plates (25 ml) supplemented with SFG (300 µl of 0.63, 1.25, 2.5 and 5 µM SFG per plate). […]

The target of assay [6] is human cap guanine-N7 methyltransferase RNMT. The following applies: cited from earlier work.
In assay [7] the test system is S. cerevisiae strain complemented with the mammalian capping apparatus. On the set-up: method as in PMID 10347220. The following applies: cited from earlier work.
Assay [8] concerns S. cerevisiae and an S. cerevisiae strain complemented with Candida albicans capping enzymes. On the set-up: method as in PMID 15964937, PMID 11035009. The conditions noted are these: S. cerevisiae versus strain complemented with Candida albicans capping enzymes; cited from earlier work.

“And” between values parts separate entries of the source, which are not always exact repeats. Equal values may be shown once. Read-outs that look alike come from different tables or passages of the source.

T2 sequence (P32783 whole entry, the tested form may be a part): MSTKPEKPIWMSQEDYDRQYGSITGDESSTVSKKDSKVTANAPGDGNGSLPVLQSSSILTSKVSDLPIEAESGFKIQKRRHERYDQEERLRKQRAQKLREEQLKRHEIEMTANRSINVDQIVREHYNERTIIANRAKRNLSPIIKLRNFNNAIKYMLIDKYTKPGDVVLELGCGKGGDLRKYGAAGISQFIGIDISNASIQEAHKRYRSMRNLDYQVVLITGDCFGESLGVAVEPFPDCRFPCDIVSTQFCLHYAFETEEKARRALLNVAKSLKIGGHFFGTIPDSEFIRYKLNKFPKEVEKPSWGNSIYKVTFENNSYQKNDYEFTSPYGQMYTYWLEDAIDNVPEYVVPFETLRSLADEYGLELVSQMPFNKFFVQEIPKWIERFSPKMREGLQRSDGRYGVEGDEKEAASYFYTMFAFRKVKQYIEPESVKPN
T1 sequence (Q6CKI0 whole entry, the tested form may be a part): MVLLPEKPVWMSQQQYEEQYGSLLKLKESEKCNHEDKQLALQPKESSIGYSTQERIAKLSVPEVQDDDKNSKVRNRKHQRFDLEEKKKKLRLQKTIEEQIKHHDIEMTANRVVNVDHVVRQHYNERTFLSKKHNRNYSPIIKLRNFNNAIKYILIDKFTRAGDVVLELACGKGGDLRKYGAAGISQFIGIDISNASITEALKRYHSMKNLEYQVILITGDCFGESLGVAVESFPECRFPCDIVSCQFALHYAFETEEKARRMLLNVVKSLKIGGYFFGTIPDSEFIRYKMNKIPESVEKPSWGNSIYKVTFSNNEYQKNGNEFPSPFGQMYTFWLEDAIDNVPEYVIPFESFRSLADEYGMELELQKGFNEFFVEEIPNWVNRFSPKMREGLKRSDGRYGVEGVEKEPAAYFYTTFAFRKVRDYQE
T3 sequence (P32783 whole entry L59P/Y416C, the tested form may be a part): as the sequence (P32783 whole entry, the tested form may be a part) above, with L59P, Y416C counted along it
T4 sequence (P32783 whole entry E124K/K163R/K311R/F387Y/Y416F, the tested form may be a part): as the sequence (P32783 whole entry, the tested form may be a part) above, with E124K, K163R, K311R, F387Y, Y416F counted along it
T6 sequence (P32783 whole entry Y416A, the tested form may be a part): as the sequence (P32783 whole entry, the tested form may be a part) above, with Y416A counted along it
T5 sequence (P32783 whole entry Y416N/R422H, the tested form may be a part): as the sequence (P32783 whole entry, the tested form may be a part) above, with Y416N, R422H counted along it

Broadly, the IC50 is the concentration needed to halve the response being measured. Take `Nc1ncnc2c1ncn2[C@@H]1O[C@H](CSCC[C@H](N)C(=O)O)[C@@H](O)[C@H]1O` [SAH, S-adenosylhomocysteine]: the IC50 stood at 12.3 ± 4.1 µM in [1] (read-out: IC50 of SAH); 31600 ± 6800 nM at ScAbd1WT (read-out: SAH IC50); 33.5 ± 2.3 µM at ScAbd1-L59P-Y416C (read-out: SAH IC50); 35.6 ± 2.6 µM in assay [2] (read-out: SAH IC50); 29.7 ± 4.7 µM on ScAbd1-Y416N-R422H; 16.4 ± 2.6 µM at ScAbd1-Y416A (read-out: SAH IC50). Moreover, the concentration for half-maximal inhibition (IC50) with Ecm1 was 4000 nM; in assay [3] (methylation of GpppA by recombinant S. cerevisiae Abd1, read-out: IC50 of SAH) it was 21 µM.
As to `Nc1ncnc2c1ncn2[C@@H]1O[C@H](C[C@@H](N)CC[C@H](N)C(=O)O)[C@@H](O)[C@H]1O` [SFG, sinefungin], the “potency of SFG versus SAH (ratio of the IC50 values)” value in [1] (KlAbd1, GpppA substrate) was determined as 240 fold. Further, the 50% inhibitory concentration (IC50) in [1] (read-out: apparent IC50 of SFG) was 0.0521 ± 0.0131 µM; on ScAbd1WT (read-out: SFG IC50), 65 nM and 65.1 nM; at ScAbd1-L59P-Y416C (read-out: SFG IC50), 1.35 ± 0.0699 µM; in [2] (read-out: SFG IC50) it was 1.47 ± 0.0677 µM; on ScAbd1-Y416A (read-out: SFG IC50) it was 1.47 ± 0.077 µM; in the assay with Ecm1 it was 1500 nM. Further, the half-inhibitory concentration (IC50) in assay [3] (S. cerevisiae Abd1 in vitro, GpppA, read-out: apparent IC50 of SFG) is 0.024 µM. For the same compound, the “sensitivity/affinity for SFG versus SAH (ratio of IC50 values)” value at ScAbd1WT (wild-type ScAbd1, GpppA substrate) is recorded as 485 fold. Besides, the “increase of the IC50 for SFG in the SFG-resistant mutants” value in assay [4] is listed as 20 fold. Besides, the “SFG resistance of growth” value in [5] (single ABD1-Y416A mutation, abd1Δ pSAM3 (2μ HIS3 SAM3) strain background, agar) is listed as “sufficed to confer SFG resistance”. Also, the “sensitivity to growth inhibition by SFG” value in assay [5] (three ABD1* strains (L59P-Y416C, Y416N-R422H, E124K-K163R-K311R-F387Y-Y416F) versus isogenic wild-type ABD1, Trp- His- agar) was “less sensitive to growth inhibition by SFG than the isogenic wild-type ABD1 strain”. Further, the “tighter binding of SFG than of SAM or SAH” value in [3] (ScAbd1) is recorded as “up to 900 fold”. The “potency of SFG versus SAH” value in assay [3] (methylation of GpppA by recombinant S. cerevisiae Abd1) is recorded as 900 fold. Further, the “IC50 of SFG lower than that of SAH” value in assay [6] was 130 fold. Also, the “potency of growth inhibition relative to S. cerevisiae with fungal capping system” value in assay [7] was “five-fold less potent”. Also, the “potency of growth inhibition, comparison of the two strains” value in assay [8] is given as “equal potency”.
